Assays:
[1] = tested on: T-Rex 293 cell line SC3 cells lacking increased expression of androgen receptor protein; assay: Cellular growth inhibition, T-Rex 293 SC3 cells without doxycycline (no increased androgen receptor expression), CellTiter-Glo; format: cell-based; details: T-Rex 293 SC3 cells not exposed to doxycycline (no increased androgen receptor expression), 72 hours
Description: (§1) The following types of cells were prepared for this experiment: (i) a T-Rex 293 cell line having increased expression of androgen receptor protein due to exposure to doxycycline and (ii) a T-Rex 293 cell line lacking increased expression of androgen receptor protein. Ability of the test compounds to inhibit proliferation of the foregoing cell types was evaluated according to the procedures set forth below.
(§2) The doxycycline-inducible androgen receptor protein expressing cell line was established using the following protocol: T-Rex 293 cells were purchased from Invitrogen (Cat #R71007) and transfected using Lipofectamine 2000 with the wild-type androgen receptor protein sequence cloned into the pcDNA4/TO vector. Transfected cells were selected using 400 μg/mL Zeocin (Invitrogen Cat #R25001). Following selection, single clones were raised and maintained in Dulbecco's Modified Eagle Medium (DMEM) supplemented with 10% w/w Tetracycline-free fetal bovine serum (FBS) and 250 μg/mL Zeocin. Clones were analyzed for expression of androgen receptor protein in the presence and absence of 10 ng/mL doxycycline (Sigma Cat #D9891), and a single doxycycline-inducible clone (hereinafter “SC3”) was selected for use in downstream assays.
(§3) The SC3 cells were seeded on poly-D-lysine coated, black clear-bottom 384-well plates at 2500/well, in 25 μL Phenol Red Free Dulbecco's Modified Eagle Medium (DMEM) supplemented with 10% w/w charcoal-dextran treated fetal bovine serum (FBS) and 1% w/w pen-strep, with or without 10 ng/mL doxycycline. Pen-Strep is a commercially available mixture of penicillin G and streptomycin, which is used in mammalian cell culture media to prevent bacterial contamination. Phenol Red Free Dulbecco's Modified Eagle Medium (DMEM) supplemented with 10% w/w charcoal-dextran treated fetal bovine serum (FBS) and 1% w/w pen-strep, with or without 10 ng/mL doxycycline is herein referred to as Treatment Medium. Following seeding of cells in the plates, the plates were spun at 300×g for 30 seconds, then equilibrated to room temperature for 30 minutes, and then deposited in a humidified tissue culture incubator maintained at 37° C. with 5% CO2.
(§4) At 24 hours after seeding of the cells, dilutions of test compound were prepared in DMSO and dissolved in Treatment Medium, to achieve a final DMSO concentration of 0.5% w/w, thereby providing the Test Compound Solution. A 25 μL aliquot of the Test Compound Solution was added to cells in the well plates. An equal volume of a solution containing DMSO and Treatment Medium was used as a negative control. Following treatment of cells with Test Compound Solution or said equal volume of a solution containing DMSO and Treatment Medium, the plates were spun at 300×g for 30 seconds, and then left in an incubator for 72 hours.
(§5) At the end of the treatment duration, cell viability was quantified with CellTiter-Glo 2.0 reagent (Promega Cat #G9243). For this purpose, plates were equilibrated to room temperature for 30 minutes, and then 25 μL of CellTiter-Glo 2.0 reagent was added to cells in the plate wells. Plates were then agitated on a shaker for two minutes at 500 rpm and subsequently incubated at room temperature for 10 minutes. Following incubation, the plates were spun at 3000×g for 30 seconds, then sealed with an optical adhesive cover, and luminescence readings were measured with an EnVision Plate Reader.
(§6) Data was normalized using zero luminescence for baseline. A four-parameter non-linear regression curve fit was applied to dose-response data in GraphPad Prism data analysis software to determine the half-maximal growth inhibitory concentration (GI50) for each test compound.

[2] = tested on: T-Rex 293 cell line SC3 cells having increased expression of androgen receptor protein due to exposure to doxycycline; assay: Cellular growth inhibition, T-Rex 293 SC3 cells with doxycycline (increased androgen receptor expression), CellTiter-Glo; format: cell-based; details: T-Rex 293 SC3 cells with 10 ng/mL doxycycline (increased androgen receptor expression), 72 hours, CellTiter-Glo 2.0
Description: as §1, §2, §3, §4, §5, §6

VCaP cells = assay: Cellular growth inhibition assay for VCaP cells, CellTiter-Glo; format: cell-based, human; details: Homo sapiens, 72 hours
Description: VCaP cells were purchased from American Type Cell Culture (ATCC Cat #CRL2876) and then seeded on poly-D-lysine coated, black clear-bottom 384-well plates at 5000/well in 25 μL Dulbecco's Modified Eagle Medium (DMEM) supplemented with 10% w/w Fetal bovine serum (FBS) and 1% w/w Pen-Strep. Pen-Strep is a commercially available mixture of penicillin G and streptomycin, which is used in mammalian cell culture media to prevent bacterial contamination. Dulbecco's Modified Eagle Medium (DMEM) supplemented with 10% w/w fetal bovine serum (FBS) and 1% w/w Pen-Strep is herein referred to as Treatment Medium. Following seeding of cells in the plates, the plates were spun at 300×g for 30 seconds, then equilibrated to room temperature for 30 minutes, and then deposited in a humidified tissue culture incubator maintained at 37° C. with 5% CO2.
as §4, §5, §6

GI50 (VCaP cells)	Structure (SMILES)	GI50 [1]	GI50 [2]
–	CCS(=O)(=O)Nc1ccc(Oc2cccc(OCCOCCOCCN(C)c3ncc(C(=O)N[C@H]4C(C)(C)[C@H](Oc5ccc(C#N)c(Cl)c5)C4(C)C)cn3)c2)c(-c2cn(C)c(=O)c3[nH]ccc23)c1 [Compound I-2]	1.5 to 3 µM	< 0.5 µM
–	CCS(=O)(=O)Nc1ccc(Oc2cccc(OCCOCCOCCOCCOCCOCCOCCN(C)c3ncc(C(=O)N[C@H]4C(C)(C)[C@H](Oc5ccc(C#N)c(Cl)c5)C4(C)C)cn3)c2)c(-c2cn(C)c(=O)c3[nH]ccc23)c1 [Compound I-4]	< 0.5 µM	< 0.5 µM
< 0.5 µM	CCS(=O)(=O)Nc1ccc(Oc2cccc(OCCCOCCCOC3CCN(c4ncc(C(=O)N[C@H]5C(C)(C)[C@H](Oc6ccc(C#N)c(Cl)c6)C5(C)C)cn4)CC3)c2)c(-c2cn(C)c(=O)c3[nH]ccc23)c1 [Compound I-12]	< 0.5 µM	< 0.5 µM
< 0.5 µM	CCS(=O)(=O)Nc1ccc(Oc2cccc(OCCCOCCOC3CCN(c4ncc(C(=O)N[C@H]5C(C)(C)[C@H](Oc6ccc(C#N)c(Cl)c6)C5(C)C)cn4)CC3)c2)c(-c2cn(C)c(=O)c3[nH]ccc23)c1 [Compound I-14]	0.5 to 1.5 µM	< 0.5 µM
< 0.5 µM	CCS(=O)(=O)Nc1ccc(Oc2cccc(OCCCCOC3CCN(c4ncc(C(=O)N[C@H]5C(C)(C)[C@H](Oc6ccc(C#N)c(Cl)c6)C5(C)C)cn4)CC3)c2)c(-c2cn(C)c(=O)c3[nH]ccc23)c1 [Compound I-15]	0.5 to 1.5 µM	< 0.5 µM
< 0.5 µM	CCS(=O)(=O)Nc1ccc(Oc2cccc(OCCOCCCOC3CCN(c4ncc(C(=O)N[C@H]5C(C)(C)[C@H](Oc6ccc(C#N)c(Cl)c6)C5(C)C)cn4)CC3)c2)c(-c2cn(C)c(=O)c3[nH]ccc23)c1 [Compound I-16]	< 0.5 µM	< 0.5 µM
< 0.5 µM	CCS(=O)(=O)Nc1ccc(Oc2cccc(OCCCOC3CCN(c4ncc(C(=O)N[C@H]5C(C)(C)[C@H](Oc6ccc(C#N)c(Cl)c6)C5(C)C)cn4)CC3)c2)c(-c2cn(C)c(=O)c3[nH]ccc23)c1 [Compound I-17]	< 0.5 µM	< 0.5 µM
< 0.5 µM	CCS(=O)(=O)Nc1ccc(Oc2cccc(CCCOC3CCN(c4ncc(C(=O)N[C@H]5C(C)(C)[C@H](Oc6ccc(C#N)c(Cl)c6)C5(C)C)cn4)CC3)c2)c(-c2cn(C)c(=O)c3[nH]ccc23)c1 [Compound I-20]	< 0.5 µM	< 0.5 µM
< 0.5 µM	CCS(=O)(=O)Nc1ccc(Oc2cccc(CCCCCOC3CCN(c4ncc(C(=O)N[C@H]5C(C)(C)[C@H](Oc6ccc(C#N)c(Cl)c6)C5(C)C)cn4)CC3)c2)c(-c2cn(C)c(=O)c3[nH]ccc23)c1 [Compound I-22]	< 0.5 µM	< 0.5 µM
< 0.5 µM	CCS(=O)(=O)Nc1ccc(Oc2cccc(OCCC3CCN(c4ncc(C(=O)N[C@H]5C(C)(C)[C@H](Oc6ccc(C#N)c(Cl)c6)C5(C)C)cn4)CC3)c2)c(-c2cn(C)c(=O)c3[nH]ccc23)c1 [Compound I-26]	< 0.5 µM	< 0.5 µM
< 0.5 µM	CCS(=O)(=O)Nc1ccc(Oc2cccc(OCCCCC3CCN(c4ncc(C(=O)N[C@H]5C(C)(C)[C@H](Oc6ccc(C#N)c(Cl)c6)C5(C)C)cn4)CC3)c2)c(-c2cn(C)c(=O)c3[nH]ccc23)c1 [Compound I-28]	0.5 to 1.5 µM	< 0.5 µM
< 0.5 µM	CCS(=O)(=O)Nc1ccc(Oc2cccc(OCCN3CCN(CC4CCN(c5ncc(C(=O)N[C@H]6C(C)(C)[C@H](Oc7ccc(C#N)c(Cl)c7)C6(C)C)cn5)CC4)CC3)c2)c(-c2cn(C)c(=O)c3[nH]ccc23)c1 [Compound I-32]	< 0.5 µM	< 0.5 µM
< 0.5 µM	CCS(=O)(=O)Nc1ccc(Oc2cccc(OCCCN3CCN(CC4CCN(c5ncc(C(=O)N[C@H]6C(C)(C)[C@H](Oc7ccc(C#N)c(Cl)c7)C6(C)C)cn5)CC4)CC3)c2)c(-c2cn(C)c(=O)c3[nH]ccc23)c1 [Compound I-33]	< 0.5 µM	< 0.5 µM
< 0.5 µM	CCS(=O)(=O)Nc1ccc(Oc2cccc(OCCCCN3CCN(CC4CCN(c5ncc(C(=O)N[C@H]6C(C)(C)[C@H](Oc7ccc(C#N)c(Cl)c7)C6(C)C)cn5)CC4)CC3)c2)c(-c2cn(C)c(=O)c3[nH]ccc23)c1 [Compound I-34]	< 0.5 µM	< 0.5 µM
< 0.5 µM	CCS(=O)(=O)Nc1ccc(Oc2cccc(OC3CN(CC4CCN(c5ncc(C(=O)N[C@H]6C(C)(C)[C@H](Oc7ccc(C#N)c(Cl)c7)C6(C)C)cn5)CC4)C3)c2)c(-c2cn(C)c(=O)c3[nH]ccc23)c1 [Compound I-38]	< 0.5 µM	< 0.5 µM
< 0.5 µM	CCS(=O)(=O)Nc1cnc(Oc2cccc(OCCOC3CCN(c4cnc(C(=O)N[C@H]5C(C)(C)[C@H](Oc6ccc(C#N)c(Cl)c6)C5(C)C)cn4)CC3)c2)c(-c2cn(C)c(=O)c3[nH]ccc23)c1 [Compound I-46]	> 3 µM	< 0.5 µM
< 0.5 µM	Cn1cc(-c2cc(NS(C)(=O)=O)ccc2Oc2cccc(OCCOC3CCN(c4ncc(C(=O)N[C@H]5C(C)(C)[C@H](Oc6ccc(C#N)c(Cl)c6)C5(C)C)cn4)CC3)c2)c2cc[nH]c2c1=O [Compound I-50, N-((1r, 3r)-3-(3-chloro-4-cyanophenoxy)-2,2,4,4-tetramethylcyclobutyl)-2-(4-(2-(3-(2-(6-methyl-7-oxo-6,7-dihydro-1H-pyrrolo[2,3-c]pyridin-4-yl)-4-(methylsulfonamido)phenoxy)phenoxy)ethoxy)piperidin-1-yl)pyrimidine-5-carboxamide]	< 0.5 µM	< 0.5 µM
< 0.5 µM	Cn1cc(-c2cc(CS(C)(=O)=O)ccc2Oc2cccc(OCCOC3CCN(c4ncc(C(=O)N[C@H]5C(C)(C)[C@H](Oc6ccc(C#N)c(Cl)c6)C5(C)C)cn4)CC3)c2)c2cc[nH]c2c1=O [Compound I-53, N-((1r, 3r)-3-(3-chloro-4-cyanophenoxy)-2,2,4,4-tetramethylcyclobutyl)-2-(4-(2-(3-(2-(6-methyl-7-oxo-6,7-dihydro-1H-pyrrolo[2,3-c]pyridin-4-yl)-4-((methylsulfonyl)methyl)phenoxy)phenoxy)ethoxy)piperidin-1-yl)pyrimidine-5-carboxamide]	< 0.5 µM	< 0.5 µM
< 0.5 µM	CCS(=O)(=O)c1ccc(Oc2cccc(OCCOC3CCN(c4ncc(C(=O)N[C@H]5C(C)(C)[C@H](Oc6ccc(C#N)c(Cl)c6)C5(C)C)cn4)CC3)c2)c(-c2cn(C)c(=O)c3[nH]ccc23)c1 [Compound I-55, N-((1r, 3r)-3-(3-chloro-4-cyanophenoxy)-2,2,4,4-tetramethylcyclobutyl)-2-(4-(2-(3-(4-(ethylsulfonyl)-2-(6-methyl-7-oxo-6,7-dihydro-1H-pyrrolo[2,3-c]pyridin-4-yl)phenoxy)phenoxy)ethoxy)piperidin-1-yl)pyrimidine-5-carboxamide]	< 0.5 µM	< 0.5 µM
